Measurements reported in US9403843B2, “Cysteine protease inhibitors and uses thereof” (The Trustees of Columbia University in the City of New York, priority 2012, dated 2016).
“Also recorded” adds a separate entry of the source. Read-outs that look alike come from different tables or passages of the source.

Legend:
[1] = molecular target: T1, full-length human Cal1 (Homo sapiens (Human), UniProt P07384); assay: Calpain inhibition FRET assay; format: biochemical; settings: for IC50: Table 2, approximate IC50, read-out: Cal I IC50
Method: Calpain activity was measured using full-length human Cal1 in the presence of a FRET substrate. IC50 values were approximated by co-incubation of varying concentrations of the appropriate inhibitor (10, 100, 500, 1000 nM) in the presence of the FRET substrate (DABCYL)TPLK-SPPSPR-(EDANS) (SEQ ID NO: 5) and activation buffer. […] A peptide inhibitor, Z-LLY-FMK (SEQ ID NO: 6), was used as a positive control.
The Calbiochem InnoZyme activity kit was used for measuring the inhibition effect inhibitors on human erythrocyte calpain 1 activity. […] 20 μM of the FRET substrate, 10 nM of native Cal1, and 20 μM TCEP (reducing agent) were added to the reaction mixture containing assay buffer (Tris [10 mM], NaCl [100 mM], pH 7.4). Cal1 was activated by the addition of 10 μM calcium. Cleavage of the scissile bond amide bond, K-S, releases the fluorophore (EDANS) from the internal quenching molecule (DABCYL), resulting in an increase in fluorescence measured at 320 nm excitation and 480 nm emission wave lengths for 30 min. Each inhibitor was added to the reaction mixture at varying concentrations (10 nM, 100 nM, 1 μM, and 10 μM) to detect inhibition of Cal1 and reduction in fluorescence was measured by 96 well-plate reader. Approximate IC50 values of each compound were generated using linear regression within Graphpad Prism Software.

[2] = molecular target: T1, full-length human Cal1; assay: Calpain inhibition FRET assay; format: biochemical; settings: Table 3, 20 min incubation, FRET substrate
[3] = >1: inhibition not quantifiable at 1 μM

T1 sequence (P07384 whole entry): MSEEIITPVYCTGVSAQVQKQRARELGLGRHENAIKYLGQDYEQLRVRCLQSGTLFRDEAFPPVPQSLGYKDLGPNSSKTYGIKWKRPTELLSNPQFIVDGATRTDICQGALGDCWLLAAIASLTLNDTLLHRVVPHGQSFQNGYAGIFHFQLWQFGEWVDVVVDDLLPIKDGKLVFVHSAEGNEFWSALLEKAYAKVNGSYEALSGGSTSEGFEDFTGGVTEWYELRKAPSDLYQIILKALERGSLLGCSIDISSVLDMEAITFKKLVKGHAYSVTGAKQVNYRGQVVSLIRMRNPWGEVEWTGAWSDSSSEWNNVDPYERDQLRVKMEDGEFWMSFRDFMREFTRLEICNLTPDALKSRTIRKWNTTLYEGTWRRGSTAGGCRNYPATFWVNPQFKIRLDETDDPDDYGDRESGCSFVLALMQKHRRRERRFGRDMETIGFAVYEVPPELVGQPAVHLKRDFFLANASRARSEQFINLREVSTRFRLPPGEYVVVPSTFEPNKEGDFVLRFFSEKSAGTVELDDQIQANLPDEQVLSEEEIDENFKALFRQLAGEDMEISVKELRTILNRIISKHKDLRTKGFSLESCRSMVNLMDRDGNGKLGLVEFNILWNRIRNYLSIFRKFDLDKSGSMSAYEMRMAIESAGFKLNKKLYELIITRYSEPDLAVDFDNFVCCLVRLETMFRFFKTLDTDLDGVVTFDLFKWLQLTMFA
T1 sequence (P04632 whole entry partner): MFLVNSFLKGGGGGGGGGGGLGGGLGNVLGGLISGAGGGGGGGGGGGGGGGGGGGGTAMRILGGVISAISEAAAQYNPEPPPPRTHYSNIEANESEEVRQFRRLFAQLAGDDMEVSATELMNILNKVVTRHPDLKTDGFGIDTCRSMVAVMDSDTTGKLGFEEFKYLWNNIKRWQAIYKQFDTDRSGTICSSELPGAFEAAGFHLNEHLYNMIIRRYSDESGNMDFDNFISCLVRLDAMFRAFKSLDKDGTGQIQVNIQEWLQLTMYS

IC50 [1] [nM]	SMILES	further results
> 1000	CCOC(=O)[C@@H]1O[C@H]1C(=O)N[C@@H](CC(C)C)C(=O)Nc1nc(-c2ccc(F)cc2)cs1 [Compound 75]	–
5000	O=C(Nc1ccccc1)[C@H](Cc1cnc[nH]1)NC(=O)[C@H]1O[C@@H]1C(=O)O [Compound 28, (2S,3S)-3-((S)-3-(1H-imidazol-4-yl)-1-oxo-1-(phenylamino)propan-2-ylcarbamoyl)oxirane-2-carboxylic acid]	–
> 1000	CCOC(=O)[C@H]1O[C@@H]1C(=O)N[C@@H](CC(C)C)C(=O)Nc1c(F)cccc1F [Compound 81]	–
2500	CCOC(=O)[C@H]1O[C@@H]1C(=O)N[C@@H](CC(C)C)C(=O)Nc1ccccc1 [Compound 84]	–
> 1000	C#CCNC(=O)[C@H](CC(C)C)NC(=O)C1OC1c1ccccc1 (stereo partly shown) [Compound 60]	–
> 1000	CCOC(=O)[C@H]1OC1C(=O)N[C@@H](CC(C)C)C(=O)NCCCCNS(=O)(=O)c1ccc(F)cc1 (stereo partly shown) [Compound 63]	–
> 1000	CCOC(=O)[C@H]1O[C@@H]1C(=O)N[C@@H](CC(C)C)C(=O)N(C)c1nc(-c2ccc(F)cc2)cs1 [Compound 71]	–
> 1000	CC(C)C[C@H](NC(=O)C1OC1c1ccccc1)C(=O)NCCCCNC(=N)N (stereo partly shown) [Compound 65]	–
> 1000	CCOC(=O)[C@@H]1O[C@H]1C(=O)N[C@@H](CC(C)C)C(=O)Nc1c(F)cccc1F [Compound 80]	–
> 1000	CC(C)C[C@H](NC(=O)[C@@H]1O[C@H]1C(=O)O)C(=O)Nc1c(F)cccc1F [Compound 23b, (2R,3R)-3-((S)-1-(2,6-difluorophenylamino)-4-methyl-1-oxopentan-2-ylcarbamoyl)oxirane-2-carboxylic acid]	Cal1 inhibition (in words) [1]: not observed; IC50 [2, 3]: > 1000 nM
100	CC(C)C[C@H](NC(=O)[C@H]1O[C@@H]1C(=O)O)C(=O)Nc1ccccc1 [Compound 22, (2S,3S)-3-((S)-4-methyl-1-oxo-1-(phenylamino)pentan-2-ylcarbamoyl)oxirane-2-carboxylic acid]	–
275	C#CCNC(=O)[C@H](CC(C)C)NC(=O)[C@H]1O[C@@H]1C(=O)O [Compound 88]	–
> 1000	CCOC(=O)[C@H]1O[C@@H]1C(=O)N[C@@H](CC(C)C)C(=O)Nc1nc(-c2ccc(F)cc2)cs1 [Compound 70]	–
> 1000	CCOC(=O)[C@@H]1O[C@H]1C(=O)NC(C)C [Compound 73]	–
> 10000	CCOC(=O)[C@H]1O[C@@H]1C(=O)N[C@@H](Cc1cnc[nH]1)C(=O)Nc1ccccc1 [Compound 85]	–

More lines, now with the values behind:

SMILES	IC50 [1] [nM]	further results
O=C(NCc1cn(-c2ccc3c(c2)OCO3)nn1)[C@H](Cc1cscn1)NC(=O)[C@H]1O[C@@H]1C(=O)O [Compound 52, (2S,3S)-3-((S)-1-((1-(benzo[d][1,3]dioxol-5-yl)-1H-1,2,3-triazol-4-yl)methylamino)-1-oxo-3-(thiazol-4-yl)propan-2-ylcarbamoyl)oxirane-2-carboxylic acid]	400	Cal1 inhibition (in words) [1]: potent activity
O=C(NCc1cn(-c2ccccc2)nn1)[C@H](Cc1cscn1)NC(=O)[C@H]1O[C@@H]1C(=O)O [Compound 49, (2S,3S)-3-((S)-1-oxo-1-((1-phenyl-1H-1,2,3-triazol-4-yl)methylamino)-3-(thiazol-4-yl)propan-2-ylcarbamoyl)oxirane-2-carboxylic acid]	–	IC50 [2, 3]: 1000 nM
CCOC(=O)[C@@H]1O[C@H]1C(=O)N[C@@H](Cc1cnc[nH]1)C(=O)Nc1nc(-c2ccc(F)cc2)cs1 [Compound 77]	> 1000	–
CC(C)C[C@H](NC(=O)[C@H]1O[C@@H]1C(=O)O)C(=O)NCc1cn(-c2ccc(F)cc2)nn1 [Compound 86]	30	–
CC(C)C[C@H](NC(=O)C1OC1c1ccccc1)C(=O)NCCCCNC(=O)CCCCC1CCSS1 (stereo partly shown) [Compound 62]	> 1000	–
O=C(O)[C@H]1O[C@@H]1C(=O)NCc1ccc(CO)cc1 [Compound 83]	> 1000	–
CCOC(=O)[C@H]1O[C@@H]1C(=O)NCc1ccc(CO)cc1 [Compound 82]	> 1000	–
CC(C)C[C@H](NC(=O)[C@H]1O[C@@H]1C(=O)O)C(=O)NCCCCNS(=O)(=O)c1ccc(F)cc1 [Compound 68]	100	–
Cc1cc(C)c(NC(=O)[C@H](Cc2cnc[nH]2)NC(=O)[C@H]2O[C@@H]2C(=O)O)c(C)c1 [Compound 29, (2S,3S)-3-((S)-3-(1H-imidazol-5-yl)-1-(mesitylamino)-1-oxopropan-2-ylcarbamoyl)oxirane-2-carboxylic acid]	5000	–
CCOC(=O)[C@@H]1O[C@H]1C(N)=O [Compound 76]	> 1000	–
CC(C)NC(=O)[C@@H]1O[C@H]1C(=O)O [Compound 74]	> 1000	–
O=C(NCc1cn(-c2c(F)cccc2F)nn1)[C@H](Cc1cscn1)NC(=O)[C@H]1O[C@@H]1C(=O)O [Compound 57, (2S,3S)-3-((S)-1-((1-(2,6-difluorophenyl)-1H-1,2,3-triazol-4-yl)methylamino)-1-oxo-3-(thiazol-4-yl)propan-2-ylcarbamoyl)oxirane-2-carboxylic acid]	> 1000	Cal1 inhibition (in words) [1]: relatively high IC50 values; IC50 [2, 3]: > 1000 nM
CCOC(=O)[C@H]1OC1C(=O)N[C@@H](CC(C)C)C(=O)NCCCCNC(=O)CCCC[C@@H]1SC[C@@H]2NC(=O)N[C@@H]21 (stereo partly shown) [Compound 59]	> 1000	–
CCOC(=O)[C@@H]1O[C@H]1C(=O)NCc1ccc(CO)cc1 [Compound 79]	> 1000	–
CCOC(=O)[C@H]1O[C@@H]1C(=O)NC1(C(=O)NCCCCNS(=O)(=O)c2ccc(F)cc2)CCCCC1 [Compound 69]	> 1000	–
Cc1cc(C)c(-n2cc(CNC(=O)[C@H](Cc3cscn3)NC(=O)[C@H]3O[C@@H]3C(=O)O)nn2)c(C)c1 [Compound 58, (2S,3S)-3-((S)-1-((1-mesityl-1H-1,2,3-triazol-4-yl)methylamino)-1-oxo-3-(thiazol-4-yl)propan-2-ylcarbamoyl)oxirane-2-carboxylic acid]	> 1000	Cal1 inhibition (in words) [1]: relatively high IC50 values; IC50 [2, 3]: > 1000 nM
O=C(Nc1nc2ccc(F)cc2s1)[C@H](Cc1c[nH]cn1)NC(=O)[C@@H]1O[C@H]1C(=O)O [Compound 31b, (2R,3R)-3-((S)-1-(6-fluorobenzo[d]thiazol-2-ylamino)-3-(1H-imidazol-4-yl)-1-oxopropan-2-ylcarbamoyl)oxirane-2-carboxylic acid]	> 1000	IC50 [2, 3]: > 1000 nM
CCOC(=O)[C@H]1O[C@@H]1C(=O)N[C@@H](Cc1cnc[nH]1)C(=O)Nc1nc(-c2ccc(F)cc2)cs1 [Compound 78]	> 1000	–
CC(C)C[C@H](NC(=O)[C@H]1O[C@@H]1C(=O)O)C(=O)NCc1cn(-c2ccc(S(N)(=O)=O)cc2)nn1 [Compound 87]	50	–
O=C(Nc1ccccc1)[C@H](Cc1cscn1)NC(=O)[C@H]1O[C@@H]1C(=O)O [Compound 32, (2S,3S)-3-((S)-1-oxo-1-(phenylamino)-3-(thiazol-4-yl)propan-2-ylcarbamoyl)oxirane-2-carboxylic acid]	–	IC50 [2, 3]: 2500 nM
O=C(NCc1cn(-c2cc(C(F)(F)F)cc(C(F)(F)F)c2)nn1)[C@H](Cc1cscn1)NC(=O)[C@H]1O[C@@H]1C(=O)O [Compound 54, (2S,3S)-3-((S)-1-((1-(3,5-bis(trifluoromethyl)phenyl)-1H-1,2,3-triazol-4-yl)methylamino)-1-oxo-3-(thiazol-4-yl)propan-2-ylcarbamoyl)oxirane-2-carboxylic acid]	> 1000	Cal1 inhibition (in words) [1]: relatively high IC50 values; also recorded: weak activity; IC50 [2, 3]: > 1000 nM
O=C(NCc1cn(-c2ccc([N+](=O)[O-])cc2)nn1)[C@H](Cc1cscn1)NC(=O)[C@H]1O[C@@H]1C(=O)O [Compound 56, (2S,3S)-3-((S)-1-((1-(4-nitrophenyl)-1H-1,2,3-triazol-4-yl)methylamino)-1-oxo-3-(thiazol-4-yl)propan-2-ylcarbamoyl)oxirane-2-carboxylic acid]	–	Cal1 inhibition (in words) [1]: potent activity; IC50 [2]: 300 nM
CC(C)C[C@H](NC(=O)[C@H]1O[C@@H]1C(=O)O)C(=O)N(C)c1nc(-c2ccc(F)cc2)cs1 [Compound 72]	200	–
O=C(NCc1cn(-c2ccc(S(=O)(=O)N3CCCCC3)cc2)nn1)[C@H](Cc1cscn1)NC(=O)[C@H]1O[C@@H]1C(=O)O [Compound 51, (2S,3S)-3-((S)-1-oxo-1-((1-(4-(piperidin-1-ylsulfonyl)phenyl)-1H-1,2,3-triazol-4-yl)methylamino)-3-(thiazol-4-yl)propan-2-ylcarbamoyl)oxirane-2-carboxylic acid]	–	IC50 [2, 3]: 1500 nM
O=C(Nc1nc2ccc(F)cc2s1)[C@H](Cc1c[nH]cn1)NC(=O)[C@H]1O[C@@H]1C(=O)O [Compound 31a, (2S,3S)-3-((S)-1-(6-fluorobenzo[d]thiazol-2-ylamino)-3-(1H-imidazol-4-yl)-1-oxopropan-2-ylcarbamoyl)oxirane-2-carboxylic acid]	535	–
Cn1cncc1C[C@H](NC(=O)[C@H]1O[C@@H]1C(=O)O)C(=O)Nc1nc(-c2ccc(F)cc2)cs1 [Compound 35, (2S,3S)-3-((S)-1-(4-(4-fluorophenyl)thiazol-2-ylamino)-3-(1-methyl-1H-imidazol-5-yl)-1-oxopropan-2-ylcarbamoyl)oxirane-2-carboxylic acid]	5000	–
